Assay results reported in ChEMBL document CHEMBL5506038, “Discovery of LC-MI-3: A Potent and Orally Bioavailable Degrader of Interleukin-1 Receptor-Associated Kinase 4 for the Treatment of Inflammatory Diseases” (J Med Chem, 2024).
Active and inactive are the calls of the source. No cut-off for these calls is given here.

What was measured:
[1] = molecular target: T1, Protein cereblon/Interleukin-1 receptor-associated kinase 4 (Mus musculus) (UniProt Q8C7D2+Q8R4K2); assay: PROTAC activity at IRAK4/CRBN in mouse BaF3 cells assessed as reduction in IRAK4 level at 100 nM incubated for 12 hrs by Western blot analysis relative to control; type: cell-based; set-up: scale not given: the % may be the effect or the level left
[2] = AUC (0 to infinity) in Sprague-Dawley rat at 2 mg/kg, iv by LC-MS/MS analysis; type: ADME, organism-based; settings: in vivo
[3] = Tmax in Sprague-Dawley rat at 2 mg/kg, iv by LC-MS/MS analysis; type: ADME, organism-based; settings: in vivo
[4] = Clearance in Sprague-Dawley rat at 2 mg/kg, iv by LC-MS/MS analysis; type: ADME, organism-based; settings: in vivo
[5] = molecular target: MAP kinase p38 (Mus musculus) (UniProt P47811+O08911+Q9WUI1+Q9Z1B7); assay: Inhibition of MAPK phosphorylation in LPS-induced mouse RAW264.7 cells at 1 uM pretreated with compound for 1 hr followed by LPS-induction and measured after 2 hrs by Western blot analysis; type: cell-based; settings: time 3.0 hrs
Mus musculus [6] = assay: Anti-inflammatory activity in imiquimod-induced C57BL/6 mouse psoriasis model assessed as improvement in scaling at 20 mg/kg, po administered twice daily measured for 6 days; type: functional, organism-based; settings: time 6.0 day
Mus musculus [7] = assay: Anti-inflammatory activity against LPS-induced acute […] injury C57BL/6 mouse model assessed as reduction in F4/80-positive macrophage in lung at 20 mg/kg, IG pretreated with compound for 12 hrs followed by LPS-induction and measured after 6 hrs by Immunohistochemical analysis; type: functional, organism-based; settings: time 18.0 hrs
Mus musculus [8] = assay: Anti-inflammatory activity in imiquimod-induced C57BL/6 mouse psoriasis model assessed as reduction in dermal inflammatory cell infiltration at 20 mg/kg, po administered twice daily measured for 6 days by H and E staining based analysis; type: functional, organism-based; settings: time 6.0 day
[9] = molecular target: T2, Interleukin-1 receptor-associated kinase 4 (Homo sapiens) (UniProt Q9NWZ3); assay: Inhibition of IRAK4 in human BMDM cells assessed as decrease in TLR4 endocytosis by flow cytometry analysis; type: cell-based
T2 sequence (whole entry): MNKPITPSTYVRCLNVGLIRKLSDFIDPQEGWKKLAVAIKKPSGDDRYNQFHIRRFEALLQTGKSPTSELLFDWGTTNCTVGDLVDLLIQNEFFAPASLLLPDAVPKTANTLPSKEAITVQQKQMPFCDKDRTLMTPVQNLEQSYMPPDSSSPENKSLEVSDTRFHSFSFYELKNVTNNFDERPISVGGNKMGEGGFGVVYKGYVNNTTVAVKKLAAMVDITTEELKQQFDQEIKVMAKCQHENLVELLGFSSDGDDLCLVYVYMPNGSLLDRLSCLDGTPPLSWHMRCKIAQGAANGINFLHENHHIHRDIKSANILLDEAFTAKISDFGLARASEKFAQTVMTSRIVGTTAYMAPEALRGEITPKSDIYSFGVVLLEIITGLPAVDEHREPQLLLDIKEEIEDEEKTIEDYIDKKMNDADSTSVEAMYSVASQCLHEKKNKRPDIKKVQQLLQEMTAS

Mus musculus [10] = assay: Anti-inflammatory activity against LPS-induced acute […] injury C57BL/6 mouse model assessed as reduction in IL-6 level in BALF at 20 mg/kg, IG pretreated with compound for 12 hrs followed by LPS-induction and measured after 6 hrs by ELISA analysis; type: functional, organism-based; settings: time 18.0 hrs
Mus musculus [11] = assay: Anti-inflammatory activity against LPS-induced acute […] injury C57BL/6 mouse model assessed as reduction in IL-6 level in lung at 20 mg/kg, IG pretreated with compound for 12 hrs followed by LPS-induction and measured after 6 hrs by RT-PCR analysis; type: functional, organism-based; settings: time 18.0 hrs
[12] = molecular target: Protein cereblon/Interleukin-1 receptor-associated kinase 4 (Mus musculus, UniProt Q8C7D2+Q8R4K2); assay: PROTAC activity at IRAK4/CRBN in mouse RAW264.7 cells assessed as reduction in IRAK4 level incubated for 12 hrs by Western blot analysis; type: cell-based
[13] = molecular target: T1, Protein cereblon/Interleukin-1 receptor-associated kinase 4 (Mus musculus); assay: PROTAC activity at IRAK4/CRBN in mouse RAW264.7 cells assessed as reduction in IRAK4 level at 200 nM incubated for 12 hrs by proteomic analysis; type: cell-based
Mus musculus [14] = assay: Anti-inflammatory activity in imiquimod-induced C57BL/6 mouse psoriasis model assessed as […] in skin thickness at 20 mg/kg, po administered twice daily measured on day 7 by H and E staining based analysis; type: functional, organism-based; settings: time 7.0 day
Mus musculus [15] = assay: Anti-inflammatory activity in imiquimod-induced C57BL/6 mouse psoriasis model assessed as improvement in erythema score at 20 mg/kg, po administered twice daily measured for 6 days; type: functional, organism-based; settings: time 6.0 day
[16] = AUC (0 to infinity) in Sprague-Dawley rat at 20 mg/kg, po by LC-MS/MS analysis; type: ADME, organism-based; settings: in vivo
RAW264.7 [17] = assay: Protection against Escherichia coli-induced sepsis in mouse RAW264.7 cells assessed as reduction in TNF-alpha production at 1 uM pretreated with compound for 6 hrs followed by Escherichia coli-induction and measured after 6 hrs by ELISA analysis; type: functional, cell-based; settings: time 12.0 hrs
RAW264.7 [18] = assay: Protection against Escherichia coli-induced sepsis in mouse RAW264.7 cells assessed as reduction in IL-6 level at 1 uM pretreated with compound for 6 hrs followed by Escherichia coli-induction and measured after 6 hrs by RT-PCR analysis; type: functional, cell-based; settings: time 12.0 hrs
[19] = molecular target: Sal-like protein 4 (Homo sapiens) (UniProt Q9UJQ4); assay: Induction of SALL4 degradation in human THP-1 cells upto 10000 nM incubated for 12 hrs by Western blotting analysis; type: cell-based
RAW264.7 [20] = assay: Effect on IL-6 mRNA expression in LPS-induced mouse RAW264.7 cells at 1 uM pretreated with compound for 1 hr followed by LPS-induction and measured after 6 hrs by RT-PCR analysis; type: functional, cell-based; settings: time 7.0 hrs
Mus musculus [21] = assay: Anti-inflammatory activity against LPS-induced acute […] injury C57BL/6 mouse model assessed as reduction in TNF-alpha level in BALF at 20 mg/kg, IG pretreated with compound for 12 hrs followed by LPS-induction and measured after 6 hrs by ELISA analysis; type: functional, organism-based; settings: time 18.0 hrs
Mus musculus [22] = assay: Anti-inflammatory activity in imiquimod-induced C57BL/6 mouse psoriasis model assessed as reduction in epidermal acanthosis at 20 mg/kg, po administered twice daily measured for 6 days by H and E staining based analysis; type: functional, organism-based; settings: time 6.0 day
[23] = molecular target: Zinc finger protein Aiolos (Homo sapiens) (UniProt Q9UKT9); assay: Induction of IKZF3 degradation in human THP-1 cells upto 10000 nM incubated for 12 hrs by Western blotting analysis; type: cell-based
RAW264.7 [24] = assay: Effect on IRAK4 mRNA level in mouse RAW264.7 cells by RT-qPCR analysis; type: functional, cell-based
[25] = Oral bioavailability in Sprague-Dawley rat at 20 mg/kg by LC-MS/MS analysis; type: ADME, organism-based; settings: in vivo
[26] = Drug metabolism in rat hepatocyte assessed as mono-hydroxylation mediated metabolite formation by LC-MS/MS analysis; type: ADME, cell-based; settings: hepatocytes
RAW264.7 [27] = assay: Activation of NF-kappaB pathway in LPS-induced mouse RAW264.7 cells expressing EGFP at 5 uM pretreated with compound for 1 hr followed by LPS-induction and measured at 15 min by flow cytometry analysis; type: cell-based; settings: filed as activator, time 75.0 min

T1 sequence (Q8C7D2 whole entry, looked up): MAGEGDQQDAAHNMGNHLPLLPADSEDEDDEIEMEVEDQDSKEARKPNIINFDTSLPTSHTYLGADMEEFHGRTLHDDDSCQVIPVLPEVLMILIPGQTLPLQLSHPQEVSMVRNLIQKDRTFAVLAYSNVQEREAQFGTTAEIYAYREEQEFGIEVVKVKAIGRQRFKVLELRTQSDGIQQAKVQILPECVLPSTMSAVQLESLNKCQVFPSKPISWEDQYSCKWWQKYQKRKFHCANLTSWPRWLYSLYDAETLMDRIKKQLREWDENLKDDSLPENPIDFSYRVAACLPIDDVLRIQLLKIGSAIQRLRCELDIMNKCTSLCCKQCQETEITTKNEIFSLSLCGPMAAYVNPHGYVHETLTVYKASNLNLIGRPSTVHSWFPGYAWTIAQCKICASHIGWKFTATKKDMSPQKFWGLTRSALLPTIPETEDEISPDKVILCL
T1 sequence (Q8R4K2 whole entry, looked up): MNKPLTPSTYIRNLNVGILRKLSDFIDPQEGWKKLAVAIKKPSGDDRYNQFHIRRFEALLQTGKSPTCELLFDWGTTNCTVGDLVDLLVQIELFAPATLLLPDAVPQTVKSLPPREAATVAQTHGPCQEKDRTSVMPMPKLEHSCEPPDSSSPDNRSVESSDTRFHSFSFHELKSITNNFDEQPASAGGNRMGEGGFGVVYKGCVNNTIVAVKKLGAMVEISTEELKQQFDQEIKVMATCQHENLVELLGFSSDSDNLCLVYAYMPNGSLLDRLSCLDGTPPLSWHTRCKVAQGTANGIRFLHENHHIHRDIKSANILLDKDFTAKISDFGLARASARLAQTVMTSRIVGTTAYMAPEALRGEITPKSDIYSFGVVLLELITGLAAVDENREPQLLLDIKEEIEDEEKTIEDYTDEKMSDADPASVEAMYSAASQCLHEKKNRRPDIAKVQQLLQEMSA
Chain of Protein cereblon/Interleukin-1 receptor-associated kinase 4 (Q8C7D2 whole entry): as the sequence (Q8C7D2 whole entry, looked up) above
Chain of Protein cereblon/Interleukin-1 receptor-associated kinase 4 (Q8R4K2 whole entry): as the sequence (Q8R4K2 whole entry, looked up) above
Chain of Zinc finger protein Aiolos (Homo sapiens) (Q9UKT9 whole entry): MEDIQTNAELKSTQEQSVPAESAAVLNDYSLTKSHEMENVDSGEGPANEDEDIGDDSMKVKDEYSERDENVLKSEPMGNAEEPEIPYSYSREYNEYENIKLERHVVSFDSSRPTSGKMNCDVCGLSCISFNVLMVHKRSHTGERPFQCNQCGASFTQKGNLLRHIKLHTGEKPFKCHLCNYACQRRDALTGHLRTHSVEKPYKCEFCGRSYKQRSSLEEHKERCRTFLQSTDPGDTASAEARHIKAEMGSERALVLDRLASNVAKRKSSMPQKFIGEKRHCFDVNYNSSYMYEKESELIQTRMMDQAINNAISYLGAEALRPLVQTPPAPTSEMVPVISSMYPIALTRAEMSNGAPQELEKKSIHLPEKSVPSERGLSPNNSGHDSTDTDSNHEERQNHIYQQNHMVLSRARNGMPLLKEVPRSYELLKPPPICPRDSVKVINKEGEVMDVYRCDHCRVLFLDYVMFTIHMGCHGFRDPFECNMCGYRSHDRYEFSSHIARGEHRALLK
Chain of Sal-like protein 4 (Homo sapiens) (Q9UJQ4 whole entry): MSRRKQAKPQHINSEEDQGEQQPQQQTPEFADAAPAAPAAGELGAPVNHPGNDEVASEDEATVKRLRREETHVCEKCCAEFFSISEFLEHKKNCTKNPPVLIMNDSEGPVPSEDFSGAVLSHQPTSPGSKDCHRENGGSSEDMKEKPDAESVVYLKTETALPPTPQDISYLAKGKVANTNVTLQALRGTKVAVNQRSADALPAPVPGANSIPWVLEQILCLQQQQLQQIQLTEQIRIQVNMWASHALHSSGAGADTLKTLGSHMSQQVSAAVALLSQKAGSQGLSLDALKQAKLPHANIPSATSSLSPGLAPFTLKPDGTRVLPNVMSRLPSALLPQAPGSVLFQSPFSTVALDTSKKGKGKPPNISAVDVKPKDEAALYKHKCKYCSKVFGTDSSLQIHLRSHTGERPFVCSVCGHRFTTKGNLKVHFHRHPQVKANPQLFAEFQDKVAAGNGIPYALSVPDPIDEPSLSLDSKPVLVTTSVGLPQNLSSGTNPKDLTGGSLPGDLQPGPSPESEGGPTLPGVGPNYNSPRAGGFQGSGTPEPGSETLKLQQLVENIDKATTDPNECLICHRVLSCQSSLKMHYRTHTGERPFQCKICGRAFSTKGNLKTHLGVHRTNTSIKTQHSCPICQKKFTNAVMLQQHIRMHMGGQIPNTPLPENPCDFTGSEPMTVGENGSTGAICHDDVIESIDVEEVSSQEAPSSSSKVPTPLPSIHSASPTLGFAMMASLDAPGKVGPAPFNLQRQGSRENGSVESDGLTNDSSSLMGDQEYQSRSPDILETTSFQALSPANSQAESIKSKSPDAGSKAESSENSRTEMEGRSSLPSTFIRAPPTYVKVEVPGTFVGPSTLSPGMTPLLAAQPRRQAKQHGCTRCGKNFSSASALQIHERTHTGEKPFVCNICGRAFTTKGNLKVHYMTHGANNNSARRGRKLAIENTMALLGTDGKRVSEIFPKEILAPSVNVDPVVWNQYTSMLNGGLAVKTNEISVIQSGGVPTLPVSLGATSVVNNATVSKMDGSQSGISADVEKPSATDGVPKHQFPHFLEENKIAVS

Structure (SMILES): COc1cc(N2CCN(C(=O)CCOCC#Cc3ccc4c(c3)C(=O)N(C3CCC(=O)NC3=O)C4=O)CC2)ccc1NC(=O)c1cccc(-c2ccn[nH]2)n1 (configuration not stated)
- Activity [1]: 15%
- AUC(0-inf) [2]: 1330 ng·h/mL
- Tmax [3]: 4.98 min
- clearance [4]: 25.6 mL/min/kg
- inhibition [5]: Active
- Activity (Mus musculus [6]): Active
- Activity (Mus musculus [7]): Active
- Activity (Mus musculus [8]): Active
- inhibition [9]: Active
- Activity (Mus musculus [10]): Active
- Activity (Mus musculus [11]): Active
- DC50 [12]: 47.4 nM
- Activity [13]: Active
- Activity (Mus musculus [14]): Active
- Activity (Mus musculus [15]): Active
- AUC(0-inf) [16]: 1080 ng·h/mL
- Activity (RAW264.7 [17]): Active
- Activity (RAW264.7 [18]): Active
- Activity [19]: inactive
- Activity (RAW264.7 [20]): Active
- Activity (Mus musculus [21]): Active
- Activity (Mus musculus [22]): Active
- Activity [23]: inactive
- Activity (RAW264.7 [24]): inactive
- bioavailability [25]: 8.15%
- Drug metabolism [26]: Metabolite_Detected
- Activity (RAW264.7 [27]): Active
